Measured values published in US10221163B2 (priority 2015, dated 2019).
≈ marks a conversion by molar mass, not a printed value.

Columns and labels:
[1] = tested on: MB 5919 Trans pFlp-Vim2 plasmid (OprD+, efflux+); experiment: microbe, parasite or virus in culture; format: cell-based, Pseudomonas aeruginosa
[2] = tested on: MB9862: MB 5890 Trans pFlp-Vim1 (OprD+, efflux−); experiment: microbe, parasite or virus in culture; format: cell-based, Pseudomonas aeruginosa
[3] = tested on: MB 9799: MB 5890 Trans IMP1 plasmid (OprD+, efflux−); experiment: microbe, parasite or virus in culture; format: cell-based, Pseudomonas aeruginosa
[4] = tested on: Pseudomonas aeruginosa MB 5890 (OprD+, efflux−); experiment: microbe, parasite or virus in culture; format: cell-based
[5] = tested on: MB 9861: MB 5919 Trans pFlp-Vim1 plasmid (OprD+, efflux+); experiment: microbe, parasite or virus in culture; format: cell-based, Pseudomonas aeruginosa
[6] = tested on: Pseudomonas aeruginosa MB 5919 (OprD+, efflux+); experiment: microbe, parasite or virus in culture; format: cell-based
[7] = tested on: MB 5890 Trans pFlp-Vim2 plasmid (OprD+, efflux−); experiment: microbe, parasite or virus in culture; format: cell-based, Pseudomonas aeruginosa
[8] = tested on: MB 9798: MB 5919 Trans IMP1 plasmid (OprD+, efflux+); experiment: microbe, parasite or virus in culture; format: cell-based, Pseudomonas aeruginosa
[9] = tested on: Pseudomonas aeruginosa efflux+ (MB9798), IMP-1; format: cell-based; design: Concentration of metallo-β-lactamase inhibitor which restores susceptibility of efflux + (MB9798) strain to imipenem: unit not given here; details: efflux+ MB9798; imipenem at 2 μg/mL; in the presence of a class A, C, D serine β-lactamase inhibitor closely related to relebactam
In short: (§1)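 Microbroth MIC tests in PAO1-background strains with fixed imipenem and/or ceftazidime, usually at the CLSI breakpoint, plus fixed class A/C β-lactamase inhibitor against AmpC. MBL inhibitor titrated; concentration restoring susceptibility recorded and compared as fold difference between efflux+ MB9798 and efflux− MB9799.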

[10] = molecular target: VIM-1 (Pseudomonas aeruginosa (strain ATCC 15692 / DSM 22644 / CIP 104116 / JCM 14847 / LMG 12228 / 1C / PRS 101 / PAO1), UniProt A0A0F7KYQ8); experiment: biochemical; details: fluorescence assay, CCF2-FA substrate, 30 pM enzyme, 2 hours at 25° C.; read-out: VIM-1 IC50
In short: (§2)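 Test compound, enzyme and the FRET cephalosporin substrate CCF2-FA are incubated together for 2 hours at 25° C. Cleavage is followed by fluorescence, and IC50 values are derived from semi-logarithmic inhibition curves fitted with a 4-parameter model.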

[11] = tested on: Pseudomonas aeruginosa MB9798 vs MB9799; details: fold difference between efflux+ (MB9798) and efflux− (MB9799) strains; imipenem at 2 μg/mL
In short: as §1

[12] = tested on: Escherichia coli expressing NDM-1 (CLB30005, CLB30016); format: cell-based; details: NDM-1 strain, with imipenem 1 μg/ml, 95% inhibition of bacterial growth
In short: (§3)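 Growth by absorbance after 22–24 h at 35°C defined the read-out, with imipenem fixed at 1 μg/ml alongside compound. Inocula came from overnight blood-agar colonies at 35°C, resuspended in saline and diluted 1:100 in 1.1×CAMHB.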

[13] = tested on: Klebsiella pneumoniae expressing VIM-1 (IHMA599644); format: cell-based; details: VIM-1 strain IHMA599644, with imipenem 1 μg/ml, 95% inhibition of bacterial growth
In short: as §3

[14] = tested on: Serratia marcescens expressing IMP-1 (CL5741); format: cell-based; details: IMP-1 strain CL5741, with imipenem 1 μg/ml, 95% inhibition of bacterial growth
In short: as §3

[15] = tested on: Pseudomonas aeruginosa efflux− (MB9799), IMP-1; format: cell-based; details: efflux− MB9799; imipenem at 2 μg/mL; in the presence of a class A, C, D serine β-lactamase inhibitor closely related to relebactam
In short: as §1

[16] = molecular target: IMP-1 (Serratia marcescens, UniProt P52699); experiment: biochemical; format: biochemical; details: fluorescence assay, CCF2-FA substrate, 2 pM enzyme, 2 hours at 25° C.; read-out: IMP-1 IC50
In short: as §2

[17] = molecular target: NDM-1 (Klebsiella pneumoniae, UniProt C7C422); experiment: biochemical; format: biochemical; details: fluorescence assay, CCF2-FA substrate, 1 pM enzyme, 2 hours at 25° C.; read-out: NDM-1 IC50
In short: as §2

[18] = MB 5919 Trans pFlp-Vim2 plasmid, OprD+, efflux+
[19] = MB9862 = MB 5890 Trans pFlp-Vim1, OprD+, efflux−
[20] = MB 9799 = MB 5890 Trans IMP1 plasmid, OprD+, efflux−
[21] = MB 9861 = MB 5919 Trans pFlp-Vim1 plasmid, OprD+, efflux+
[22] = MB 5890 Trans pFlp-Vim2 plasmid, OprD+, efflux−
[23] = MB 9798 = MB 5919 Trans IMP1 plasmid, OprD+, efflux+

Chain of IMP-1 (P52699 whole entry, looked up, species assumed): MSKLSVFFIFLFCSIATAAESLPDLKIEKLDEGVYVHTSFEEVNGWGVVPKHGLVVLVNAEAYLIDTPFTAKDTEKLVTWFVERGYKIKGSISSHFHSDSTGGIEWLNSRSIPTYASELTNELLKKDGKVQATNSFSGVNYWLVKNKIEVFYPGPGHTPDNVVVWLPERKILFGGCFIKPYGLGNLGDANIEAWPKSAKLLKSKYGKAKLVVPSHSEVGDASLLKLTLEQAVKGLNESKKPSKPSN
Chain of NDM-1 (C7C422 whole entry, looked up, species assumed): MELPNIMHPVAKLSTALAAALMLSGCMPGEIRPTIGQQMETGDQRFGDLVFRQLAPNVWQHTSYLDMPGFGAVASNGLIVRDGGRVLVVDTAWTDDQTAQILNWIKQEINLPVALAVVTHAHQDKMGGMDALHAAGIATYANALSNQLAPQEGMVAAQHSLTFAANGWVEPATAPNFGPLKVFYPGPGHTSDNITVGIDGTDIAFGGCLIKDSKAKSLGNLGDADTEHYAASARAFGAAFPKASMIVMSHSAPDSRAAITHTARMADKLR

| SMILES | MIC [1, 18] | MIC [2, 19] | MIC [3, 20] | MIC ([4]; MB 5890, OprD+, efflux−) | MIC [5, 21] | MIC ([6]; MB 5919, OprD+, efflux+) | MIC [7, 22] | MIC [8, 23] | Concentration of metallo-β-lactamase inhibitor which restores susceptibility of efflux + (MB9798) strain to imipenem [9] | IC50 [10] | Efflux ratio [11] | Escherichia coli MITC95 [12] | Klebsiella pneumoniae MITC95 [13] | Serratia marcescens MITC95 [14] | Concentration of metallo-β-lactamase inhibitor which restores susceptibility of efflux − (MB9799) strain to imipenem [15] | IC50 [16] | IC50 [17] | also measured |
| --- | --- | --- | --- | --- | --- | --- | --- | --- | --- | --- | --- | --- | --- | --- | --- | --- | --- | --- |
| CC[C@H]1OC(=O)[C@H](C)[C@@H](O[C@H]2C[C@@](C)(OC)[C@@H](O)[C@H](C)O2)[C@H](C)[C@@H](O[C@@H]2O[C@H](C)C[C@H](N(C)C)[C@H]2O)[C@](C)(O)C[C@@H](C)CN(C)[C@H](C)[C@@H](O)[C@]1(C)O [Azithromycin] |  |  |  |  |  |  |  |  |  |  |  |  |  |  |  |  |  | MIC ([1]; Pseudomonas aeruginosa): 32 µg/mL (≈ 42.7 µM); MIC ([2]; Pseudomonas aeruginosa): 1 µg/mL (≈ 1.34 µM); MIC ([3]; Pseudomonas aeruginosa): 2 µg/mL (≈ 2.67 µM); MIC ([4]; Pseudomonas aeruginosa): 1 µg/mL (≈ 1.34 µM); MIC ([5]; Pseudomonas aeruginosa): 32 µg/mL (≈ 42.7 µM); MIC ([6]; Pseudomonas aeruginosa): 16 µg/mL (≈ 21.4 µM); MIC ([7]; Pseudomonas aeruginosa): 1 µg/mL (≈ 1.34 µM); MIC ([8]; Pseudomonas aeruginosa): 16 µg/mL (≈ 21.4 µM) |
| CC(C)(O/N=C(\C(=O)N[C@@H]1C(=O)N2C(C(=O)[O-])=C(C[n+]3ccccc3)CS[C@H]12)c1csc(N)n1)C(=O)O [CAZ, ceftazidime] | 128 µg/mL (≈ 234 µM) | >256 µg/mL | 256 µg/mL (≈ 468 µM) | 0.5 µg/mL (≈ 0.915 µM) | >256 µg/mL | 1 µg/mL (≈ 1.83 µM) | 64 µg/mL (≈ 117 µM) | 256 µg/mL (≈ 468 µM) |  |  |  |  |  |  |  |  |  |  |
| O=C(N[C@H](CO)[C@H](O)c1ccc([N+](=O)[O-])cc1)C(Cl)Cl [Chloroamphenicol, chloramphenicol] |  |  |  |  |  |  |  |  |  |  |  |  |  |  |  |  |  | MIC ([1]; Pseudomonas aeruginosa): > 64 µg/mL; MIC ([2]; Pseudomonas aeruginosa): 2 µg/mL (≈ 6.19 µM); MIC ([3]; Pseudomonas aeruginosa): 1 µg/mL (≈ 3.09 µM); MIC ([4]; Pseudomonas aeruginosa): 1 µg/mL (≈ 3.09 µM); MIC ([5]; Pseudomonas aeruginosa): > 64 µg/mL; MIC ([6]; Pseudomonas aeruginosa): > 64 µg/mL; MIC ([7]; Pseudomonas aeruginosa): 1 µg/mL (≈ 3.09 µM); MIC ([8]; Pseudomonas aeruginosa): > 64 µg/mL |
| CC1(NS(=O)(=O)c2ccc(-c3ccc(N)nc3)c(-c3nn[nH]n3)c2S(N)(=O)=O)CNC1.Cl.Cl [Example 497, 4-(6-aminopyridin-3-yl)-1-N-(3-methylazetidin-3-yl)-3-(2H-1,2,3,4-tetrazol-5-yl)benzene-1,2-disulfonamide hydrogen] |  |  |  |  |  |  |  |  | 0.7813 | 0.219 nM | 1.00 | 0.3906 µM | 1.563 µM | 0.7813 µM | 0.7813 | 0.645 nM | 0.131 nM |  |
| C[C@H](CCN)NS(=O)(=O)c1ccc(-c2ccc(N)nc2)c(-c2nn[nH]n2)c1S(N)(=O)=O [Example 498, (R)-N1-(4-aminobutan-2-yl)-4-(6-aminopyridin-3-yl)-3-(1H-tetrazol-5-yl)benzene-1,2-disulfonamide] |  |  |  |  |  |  |  |  | 0.7813 | 0.0512 nM | 1.00 | 1.563 µM | 3.125 µM | 1.563 µM | 0.7813 | 0.0763 nM | 0.0146 nM |  |
| C[C@@H](CCN)NS(=O)(=O)c1ccc(-c2ccc(N)nc2)c(-c2nn[nH]n2)c1S(N)(=O)=O [Example 499, (S)-N1-(4-aminobutan-2-yl)-4-(6-aminopyridin-3-yl)-3-(1H-tetrazol-5-yl)benzene-1,2-disulfonamide] |  |  |  |  |  |  |  |  | 0.7813 | 0.291 nM | 1.00 | 0.7813 µM | 3.125 µM | 1.563 µM | 0.7813 | 1.02 nM | 0.555 nM |  |
| NCCN1CC[C@@H](NS(=O)(=O)c2ccc(-c3ccc(N)nc3)c(-c3nn[nH]n3)c2S(N)(=O)=O)C1 [Example 500, (R)—N1-(1-(2-aminoethyl)pyrrolidin-3-yl)-4-(6-aminopyridin-3-yl)-3-(2H-tetrazol-5-yl)benzene-1,2-disulfonamide] |  |  |  |  |  |  |  |  | 1.563 | 0.071 nM | 1.00 | 1.563 µM | 3.125 µM | 1.563 µM | 1.563 | 0.164 nM | 0.0347 nM |  |
| C[C@@H](O)[C@H]1C(=O)N2C(C(=O)O)=C(SCCN=CN)C[C@H]12 [Imipenem, imipenem] | >64 µg/mL | 64 µg/mL (≈ 214 µM) | 32 µg/mL (≈ 107 µM) | 2 µg/mL (≈ 6.68 µM) | >64 µg/mL | 4 µg/mL (≈ 13.4 µM) | 32 µg/mL (≈ 107 µM) | 64 µg/mL (≈ 214 µM) |  |  |  |  |  |  |  |  |  |  |
| C[C@@H](O)[C@H]1C(=O)N2C(C(=O)O)=C(S[C@@H]3CN[C@H](C(=O)N(C)C)C3)[C@H](C)[C@H]12 [Meropenem, meropenem] | >64 µg/mL | 64 µg/mL (≈ 167 µM) | 64 µg/mL (≈ 167 µM) | 0.5 µg/mL (≈ 1.3 µM) | >64 µg/mL | 2 µg/mL (≈ 5.22 µM) | 32 µg/mL (≈ 83.4 µM) | >64 µg/mL |  |  |  |  |  |  |  |  |  |  |
| CCN1CCN(C(=O)N[C@@H](C(=O)N[C@@H]2C(=O)N3[C@@H]2SC(C)(C)[C@@H]3C(=O)O)c2ccccc2)C(=O)C1=O [Piperalln, piperacillin] | >256 µg/mL | 128 µg/mL (≈ 247 µM) | 4 µg/mL (≈ 7.73 µM) | 1 µg/mL (≈ 1.93 µM) | >256 µg/mL | 2 µg/mL (≈ 3.86 µM) | 128 µg/mL (≈ 247 µM) | 4 µg/mL (≈ 7.73 µM) |  |  |  |  |  |  |  |  |  |  |
